Assay results: patent US20230382871A1, “CSF1R KINASE INHIBITOR AND USE THEREOF” (SHANGHAI INSTITUTE OF MATERIA MEDICA, CHINESE ACADEMY OF …, priority 2020, published 2023)
Where “and” joins values, the source holds several entries; their conditions need not be identical. Identical values can stand only once.

Tests used:
[1] = test system: human glioma U87MG subcutaneous xenografts; assay: Human glioma U87MG subcutaneous xenografts in nude mice; assay type: in vivo, BALB/c nude mice; details: 40 mg/kg bid × 21 po
Method: BALB/c nude female mice of 3-4 weeks old were used, and were provided by […] […] OF MATERIA MEDICA, CHINESE ACADEMY OF SCIENCES.
Human glioma U87MG cells were subcutaneously inoculated into the right axillary fossa of a nude mouse (5×10^6 cells/mouse). After a xenograft was formed, the tumor was transferred to a nude mouse for 1 passage.
Tumor tissues at the vigorous growth stage were removed and cut into pieces of approximately 1.5 mm^3. The tumor fragments were inoculated subcutaneously into the right axillary fossa of nude mice under aseptic conditions. The diameters of the subcutaneous xenografts in nude mice were measured with a vernier caliper. The animals were randomly grouped after the xenografts reached an average volume of about 90 mm^3. Compound I was administered orally at doses of 40 mg/kg, 20 mg/kg and 10 mg/kg twice a day for 21 consecutive days. An equal volume of a blank preparation was administered orally twice a day for 21 consecutive days. The positive control drug Axitinib was administered orally at a dose of 40 mg/kg group twice a day for 21 consecutive days. An equal volume of water for injection was administered to the animals in the solvent group. Throughout the experiment, the diameters of the xenografts were measured twice a week and the mice were weighed at the same time. The tumor volume (TV) was calculated as TV=½×a×b^2, where “a” and “b” denote the length and width of a tumor, respectively. The relative tumor volume (RTV) was calculated from the measurement results with the calculation formula RTV=Vt/V0, in which V0 is the tumor volume measured upon administration after grouping (i.e., D0) and Vt is the tumor volume from each measurement. The evaluation index of anti-tumor activity is the relative tumor proliferation rate T/C (%), which is calculated as T/C (%)=(TRTV/CRTV)×100%, in which TRTV denotes the RTV from the treatment group and CRTV denotes the RTV from solvent group.

[2] = test system: macrophage marker F4/80 in U87MG tumor tissues; assay: Immunohistochemistry of macrophage marker F4/80 in U87MG tumor tissues; assay type: in vivo, nude mice; details: 40 mg/kg, compared with blank preparation group
Method: (§1) At the end of the in vivo experiments, U87MG and HT-29 xenografts in nude mice were removed and fixed with […] to prepare paraffin sections.
(§2) Expression of individual proteins was assessed using multiplicative quick score method (MQS). This evaluation method takes into account both the staining intensity and the staining range. The method estimates the proportion of positive cells and gives a range score from 1 to 6 (1=1%-4%; 2=5%-19%; 3=20%-39%; 4=40%-59%; 5=60%-79%; 6=80%-100%). The average intensity score of positive stained cells was 0 to 3 (0=no staining; 1=weak staining; 2=moderate staining; 3=strong staining). The total score a (minimum 0 and maximum 18) is then calculated by multiplying the range score by the intensity score.
(§3) For detecting the changes in the macrophage marker F4/80 and M2-type macrophage marker CD206 in the U87MG tumor tissues, quantitative analysis (solvent: n=6, blank preparation: n=6, Compound I (10 mg/kg): n=6, Compound I (20 mg/kg): n=6, Compound I (40 mg/kg): n=6, Axitinib: n=4) was performed on all sections and the experimental data were analyzed for significant differences using the t-test. * denotes p<0.05 as compared with the blank preparation group, ** denotes p<0.01 as compared with the blank preparation group, and denotes p<0.001 as compared with the blank preparation group.

[3] = test system: M2-type macrophage marker CD206 in HT-29 tumor tissues; assay: Immunohistochemistry of M2-type macrophage marker CD206 in HT-29 tumor tissues; assay type: in vivo, nude mice; details: Compound I 5, 10, 20 mg/kg; Axitinib 40 mg/kg
Method: as §1, §2
as §3, with “the HT-29” for “the U87MG”, “(solvent: n=12,” for “(solvent: n=6,”, “preparation: n=6, Compound I (5 mg/kg):” for “preparation:”, “n=6,” for “n=6, Compound I (40 mg/kg): n=6,”, “Axitinib: n=6)” for “Axitinib: n=4)”

[4] = test system: human glioma U87MG brain in situ transplantation; assay: Survival in U87MG brain in situ transplantation model in nude mice; assay type: in vivo, BALB/cA nude mice
[5] = test system: human colorectal cancer HT-29 subcutaneous xenografts; assay: Human colorectal cancer HT-29 subcutaneous xenografts in nude mice; assay type: in vivo, BALB/c nude mice; details: 40 mg/kg bid × 21 po
Text: BALB/c female nude mice of 6 weeks old were used, and were provided by Shanghai Lingchang Biotechnology Co., Ltd.
Human colorectal cancer HT-29 cells were subcutaneously inoculated into the right axillary fossa of a nude mouse (5×10^6 cells/mouse). After a xenograft was formed, the tumor was transferred to a nude mouse for 1 passage.
Tumor tissues at the vigorous growth stage were removed and cut into pieces of approximately 1.5 mm^3. The tumor fragments were inoculated subcutaneously into the right axillary fossa of nude mice under aseptic conditions. The diameters of the subcutaneous xenografts in nude mice were measured with a vernier caliper. The animals were randomly grouped after the xenografts reached an average volume of about 120 mm^3. Compound I was administered orally at doses of 20 mg/kg, 10 mg/kg and 5 mg/kg twice a day for 21 consecutive days. An equal volume of a blank preparation was administered orally twice a day for 21 consecutive days. The positive control drug Axitinib was administered orally at a dose of 40 mg/kg group twice a day for 21 consecutive days. An equal volume of water for injection was administered to the animals in the solvent group. Throughout the experiment, the diameters of the xenografts were measured twice a week and the mice were weighed at the same time. The tumor volume (TV) was calculated as TV=½×a×b^2, where “a” and “b” denote the length and width of a tumor, respectively. The relative tumor volume (RTV) was calculated from the measurement results with the calculation formula RTV=Vt/V0, in which V0 is the tumor volume measured upon administration after grouping (i.e., D0) and Vt is the tumor volume from each measurement. The evaluation index of anti-tumor activity is the relative tumor proliferation rate T/C (%), which is calculated as T/C (%)=(TRTV/CRTV)×100%, in which TRTV denotes the RTV from the treatment group and CRTV denotes the RTV from solvent group.

[6] = test system: M2-type macrophage marker CD206 in U87MG tumor tissues; assay: Immunohistochemistry of M2-type macrophage marker CD206 in U87MG tumor tissues; assay type: in vivo, nude mice; details: 40 mg/kg
Method: as §1, §2, §3

[7] = test system: macrophage marker F4/80 in HT-29 tumor tissues; assay: Immunohistochemistry of macrophage marker F4/80 in HT-29 tumor tissues; assay type: in vivo, nude mice; details: Compound I 5, 10, 20 mg/kg; Axitinib 40 mg/kg
Method: At the end of the in vivo experiments, U87MG and HT-29 xenografts in nude mice were removed and fixed with […] to prepare paraffin sections. Expression of individual proteins was assessed using multiplicative quick score method (MQS). This evaluation method takes into account both the staining intensity and the staining range. […] The average intensity score of positive stained cells was 0 to 3 (0=no staining; 1=weak staining; 2=moderate staining; 3=strong staining). The total score a (minimum 0 and maximum 18) is then calculated by multiplying the range score by the intensity score.

[8] = test system: BMDM cells; assay: CCK8 cell proliferation inhibition assay on CSF1-stimulated bone marrow-derived macrophages; assay type: cell-based, mice (BALB/c); details: Mus musculus, 72 h exposure
Method: Mice (BALB/c) were subjected to euthanasia and then immersed in 75% alcohol for 3-5 min. The tibias and femurs of the mice were removed with ophthalmic forceps and ophthalmic clips on an ultraclean table. The tibial and femoral joints were cut off and bone marrow cells were washed out with a sterile buffer. Bone marrow cells were filtered with a 70 µm nylon membrane. The filtrate was centrifuged and the supernatant was discarded. An erythrocyte lysate was added to the pellets, which were allowed to incubate for 3-4 min. Then, a sterile buffer was added to stop the lysis reaction. The reactant was centrifuged and the supernatant was discarded, thereby yielding bone marrow cell pellets. The cells were cultured in 1640 medium (supplemented with FBS and 10 ng/mL of CSF1) for 5 to 7 days and identified as macrophages by flow cytometry. CCK8 cell counting kits were used in this assay. Bone marrow-derived macrophages, after induction by CSF1 for 5 to 7 days, were seeded into 96-well culture plates and allowed to incubate overnight. Then, the cells were exposed to compounds at various concentrations for 72 h. A blank control group was set. 10 μL of CCK8 reagent was added to each well and the places were placed in an incubator for 4 to 12 h. The plates were read with a microplate reader at a wavelength of 450 nm. […] Each experiment was independently repeated for three times.

[9] = treated patients; cited from earlier work
[10] = 40 mg/kg, implantation day as Day 0

Compound: CNC(=O)c1ccccc1Sc1ccc2c(/C=C/c3ccccn3)n[nH]c2c1 [Axitinib, reference compound]
- Body Weight (g) D 0 ([1]; D 0): 16.0 g
- TV (mm^3, mean ± SD) D 0 ([1]; D 0): 88 ± 17 mm^3
- Body Weight (g) D 21 ([1]; D 21): 18.0 g
- RTV (mean ± SD) ([1]; D 21): 9.08 ± 5.66
- TV (mm^3, mean ± SD) D 21 ([1]; D 21): 795 ± 478 mm^3
- T/C (%) ([1]; Day 21): 30.27%
- expression of F4/80 in macrophages, U87MG tumor tissue [2]: no significant effect
- expression of CD206, HT-29 tumor tissue [3]: no inhibitory activity
- Median survival time, MST ([4]; 40 mg/kg po twice a day from Day 8): 41 days and 41.0 days
- day of first death in the group [4, 10]: 28 days
- day of last death in the group [4, 10]: 48 days
- ILS (%), Increase in Life Span ([4]; 40 mg/kg, vs solvent group MST): −10.87%
- Body Weight (g) D 0 ([5]; D 0): 19.1 g
- TV (mm3, mean ± SD) D 0 ([5]; D 0): 123 ± 35 mm3
- Body Weight (g) D 21 ([5]; D 21): 17.5 g
- RTV (mean ± SD) ([5]; D 21): 4.30 ± 1.82
- TV (mm3, mean ± SD) D 21 ([5]; D 21): 505 ± 202 mm3
- T/C (%) ([5]; Day 21): 48.88%
- expression of M2-type macrophage marker CD206, U87MG tumor tissue [6]: no significant effect
- expression of F4/80, HT-29 tumor tissue [7]: no inhibitory activity

Compound: FC(F)(F)c1ccc(CNc2ccc(Cc3c[nH]c4ncc(Cl)cc34)cn2)cn1 [PLX3397, Pexidartinib, reference compound]
- IC50 [8]: 30 ± 9 nM

Compound: Yervoy: an anti-CTLA-4 antibody
- patients experiencing immune-related adverse events [9]: up to 60%
- share of immune-related adverse events that were severe (grade 3-4) [9]: 10-30%
